Entries after “also recorded” stand apart in the source; their conditions may differ.
What was measured:
[1] = system: WT and Ptpn11^D61G/+ mice; assay: Echocardiography, postnatal dasatinib treatment; type: in vivo; details: for % EF (ejection fraction) / % FS (fractional shortening) / IVS, d (Intraventricular septum wall thickness, diastole) / IVS, s (Intraventricular septum wall thickness, systole) / LV vol, d (left ventricle volume, diastole) / LV vol, s (left ventricle volume, systole) / LVID, d (left ventricular internal dimension, diastole) / LVID, s (left ventricular internal dimension, systole) / LVPW, d (left ventricular posterior wall thickness, diastole) / LVPW, s (left ventricular posterior wall thickness, systole): n = 6, Mean ± SEM
Protocol: Dasatinib Treatment—N-(2-chloro-6-methylphenyl)-2-[[6-[4-(2-hydroxyethyl)-1-piperazinyl]-2-methyl-4-pyrimidinyl]amino]-5-thiazole carboxamide monohydrate (dasatinib, BMS-354825) was purchased from Biovision. dasatinib was dissolved in DMSO at a concentration of 10 mg/ml, then resuspended in vehicle (1× Dulbecco's PBS) at a concentration of 200 μg/ml. […] And then, injection was continued or discontinued for 2 weeks, Vehicle-injected mice served as control, Body weight was measured weekly and echocardiography was performed at P42 (6-weeks) and P56 (8-weeks).
(§1) Vehicle-injected mice served as control.

[2] = system: cardiomyocytes isolated from the heart of WT and Ptpn11^D61G/+ mice; assay: Ca2+ excitation-contraction coupling of cardiomyocytes isolated from treated mice; type: in vivo
Protocol: as §1
Enzymatic Digestion of Cardiac Tissue for Single-Cell Analysis—Cardiomyocytes from 8 week old mice were isolated by a Langendorff procedure, modified from Xianghua Xu, et al. J Vis Exp. 2009; (28):1308. In brief, the hearts were quickly excised and cannulated to a Langendorff apparatus where they were perfused with 37° C. Ca^2+-free perfusion buffer (in 25 mM HEPES, 118 mM NaCl, 4.8 mM KCl, 2.0 mM KH2PO4, 2.55 mM MgSO4, 10 mM BDM and 10 mM Glucose). To digest the tissue, the heart was perfused with buffer containing 0.5 mg/mL Liberase TH (Roche Applied Science, Penzberg, Germany). After ˜10 min, the heart was removed from the Langendorff apparatus and the right ventricle and atria removed. The left ventricle was isolated, cut into small pieces and digested further at 37° C. digestion solution with mechanical agitation for 5-10 min, and then gently triturated to liberate individual cells. The remaining tissue chunks were transferred to fresh digestion buffer and the process was repeated up to 6 times, or until all tissue was digested. Cells were removed from collagenase by gentle centrifugation and resuspended in several washing steps of buffer containing FBS and gradually reintroduced to calcium (0.05-1.1 mM) through step-wise additions of concentrated CaCl2 solution. Cells were allowed to rest for at least 1 h before imaging.
Cardiomyocyte Functional Characterization—Cardiomyocytes were imaged in Tyrodes solution ([…] NaCl: 140, KCl: 5.4, CaCl2:1.8, MgCl2:1, HEPES: 25 mM, glucose: 10 mM). Cell pellets were loaded for 15 minutes in the dark with Tyrodes supplemented with 2.5 μM Fura-2 AM complimented with pluronic acid (20% w/v), for calcium fluorescence imaging. After 15 minutes of loading, the cells were resuspended in fresh Tyrodes solution and allowed to settle until imaging. Cardiomyocyte Ca^2+ transients and unloaded shortening contractions were measured using an inverted microscope (Nikon Eclipse, Chiyoda, Tokyo) equipped with a temperature controlled perfusion bath (Cell MicroControls, Norfolk, Va.) under constant perfusion of 37° C. Tyrodes solution. Cells were field-stimulated at 1 Hz. Contractile events were imaged in real-time using a sarcomere length camera system (HVSL, Aurora Scientific, Ontario, Canada). Only rod-shaped cells with well-defined sarcomere striations that contracted when stimulated were selected for measurement. Sarcomere length was measured and recorded for ten consecutive beats and subsequently averaged across beats to produce a single waveform. Calcium transient measurements were recorded simultaneously using alternating excitation wavelengths of 340 and 380 nm generated at an overall rate of 100 Hz by a RatioMaster fluorescence system (PTI, Birmingham, N.J.). Fluorescence emission was filtered at a center wavelength of 510 nm and quantified to obtain responses to the alternating excitation wavelengths (F340 and F380, respectively). Ca^2+ transients were reported as the interpolated ratio of the two fluorescence intensities (F340/F380) at each time point. Data were recorded using a DAP5216a data acquisition system (Microstar Laboratories, Bellevue, Wash.) and processed using custom software written in MATLAB (MathWorks, Natick, Mass.). Peak sarcomere length shortening (Peak SL shortening), time to peak shortening (TTP), time to 50% re-lengthening (RT50), the magnitude of the calcium transient (Ca^2+ Rmag:Max F340/F380−Min F340/F380) and the rate of calcium decay, Tau (TauCa2+) were computed.

[3] = postnatal 0.1 mg/kg/day i.p. P10 to P42, then discontinued 2 weeks, Ptpn11D61G/+ mice, P56
[4] = postnatal 0.1 mg/kg/day i.p. P10 to P42, then discontinued 2 weeks, WT mice, P56
[5] = postnatal 0.1 mg/kg/day i.p. from P10, Ptpn11D61G/+ mice, P42
[6] = postnatal 0.1 mg/kg/day i.p. from P10, WT mice, P42
[7] = postnatal dasatinib, Ptpn11D61G/+ mice, P56, n = 162 cells, n = 3 mice, Mean ± SEM
[8] = postnatal dasatinib, WT mice, P56, n = 111 cells, n = 3 mice, Mean ± SEM

## Cc1nc(Nc2ncc(C(=O)Nc3c(C)cccc3Cl)s2)cc(N2CCN(CCO)CC2)n1.O [Dasatinib, N-(2-chloro-6-methylphenyl)-2-[[6-[4-(2-hydroxyethyl)-1-piperazinyl]-2-methyl-4-pyrimidinyl]amino]-5-thiazole carboxamide monohydrate]
[1]; 0.1 mg/kg versus therapeutic dose
  fold lower than therapeutic dose: about 200 fold
[1]; mice
  dose sufficient to treat CHD-associated cardiac disease: 0.1 mg/kg
[1]; postnatal 0.1 mg/kg/day P10 to P42, discontinued 2 weeks, NS mice, P56, monohydrate
  cardiac function after cessation of treatment: preserved improvement of cardiac function; also recorded: continued preservation of cardiac function
[1]; postnatal 0.1 mg/kg/day from P10, NS mice, P42, monohydrate
  cardiac function (EF and FS): improves cardiac function; also recorded: complete corrective functionality; also recorded: completely restored cardiac functionality
[1]; [3]
  % EF (ejection fraction): 64.71 ± 1.67 %
  % FS (fractional shortening): 34.92 ± 1.23 %
  IVS, d (Intraventricular septum wall thickness, diastole): 0.72 ± 0.04 mm
  IVS, s (Intraventricular septum wall thickness, systole): 1.18 ± 0.05 mm
  LV vol, d (left ventricle volume, diastole): 65.60 ± 2.44 mm^3
  LV vol, s (left ventricle volume, systole): 24.85 ± 1.68^† mm^3
  LVID, d (left ventricular internal dimension, diastole): 3.93 ± 0.08 mm
  LVID, s (left ventricular internal dimension, systole): 2.60 ± 0.07 mm
  LVPW, d (left ventricular posterior wall thickness, diastole): 0.65 ± 0.03 mm
  LVPW, s (left ventricular posterior wall thickness, systole): 1.19 ± 0.05 mm
[1]; [4]
  % EF (ejection fraction): 65.89 ± 1.74%
  % FS (fractional shortening): 36.63 ± 1.20%
  IVS, d (Intraventricular septum wall thickness, diastole): 0.69 ± 0.03 mm
  IVS, s (Intraventricular septum wall thickness, systole): 1.19 ± 0.06 mm
  LV vol, d (left ventricle volume, diastole): 64.06 ± 2.65 mm^3
  LV vol, s (left ventricle volume, systole): 23.06 ± 2.21 mm^3
  LVID, d (left ventricular internal dimension, diastole): 3.92 ± 0.09 mm
  LVID, s (left ventricular internal dimension, systole): 2.52 ± 0.10 mm
  LVPW, d (left ventricular posterior wall thickness, diastole): 0.80 ± 0.06 mm
  LVPW, s (left ventricular posterior wall thickness, systole): 1.18 ± 0.05 mm
[1]; [5]
  % EF (ejection fraction): 60.93 ± 2.06 %
  % FS (fractional shortening): 33.08 ± 1.33 %
  IVS, d (Intraventricular septum wall thickness, diastole): 0.66 ± 0.05 mm
  IVS, s (Intraventricular septum wall thickness, systole): 1.04 ± 0.07 mm
  LV vol, d (left ventricle volume, diastole): 57.35 ± 2.19 mm^3
  LV vol, s (left ventricle volume, systole): 24.67 ± 1.18 mm^3
  LVID, d (left ventricular internal dimension, diastole): 3.63 ± 0.07 mm
  LVID, s (left ventricular internal dimension, systole): 2.50 ± 0.08 mm
  LVPW, d (left ventricular posterior wall thickness, diastole): 0.71 ± 0.03 mm
  LVPW, s (left ventricular posterior wall thickness, systole): 1.09 ± 0.06 mm
[1]; [6]
  % EF (ejection fraction): 65.70 ± 0.82%
  % FS (fractional shortening): 35.52 ± 0.69%
  IVS, d (Intraventricular septum wall thickness, diastole): 0.71 ± 0.05 mm
  IVS, s (Intraventricular septum wall thickness, systole): 1.13 ± 0.06 mm
  LV vol, d (left ventricle volume, diastole): 65.87 ± 2.78 mm^3
  LV vol, s (left ventricle volume, systole): 22.24 ± 0.63 mm^3
  LVID, d (left ventricular internal dimension, diastole): 3.80 ± 0.11 mm
  LVID, s (left ventricular internal dimension, systole): 2.45 ± 0.05 mm
  LVPW, d (left ventricular posterior wall thickness, diastole): 0.81 ± 0.04 mm
  LVPW, s (left ventricular posterior wall thickness, systole): 1.25 ± 0.07 mm
[2]; cardiomyocytes from dasatinib treated Ptpn11D61G/+ mice
  Ca2+ signaling during excitation-contraction coupling: normal
[2]; postnatal dasatinib, NS mice
  difference in relative calcium release (Rmag Ca2+) between NS and wild type cardiomyocytes: substantially ameliorated
  differences in fractional shortening of sarcomeres between NS and wild type cardiomyocytes: completely restored
[2]; [7]
  Ca^2+ TTP (Time to peak, F340/380): 43.22 ± 0.90 ms
  Diastolic Ca^2+ (MinF340/380): 0.98 ± 0.01
  Peak Shortening: 6.59 ± 0.18 %
  Rmag Ca^2+ (ΔF340/380): 0.14 ± 0.01
  Shortening RT50 (Time from peak tension to 50% relaxation): 37.02 ± 0.62 ms
  Shortening RT90 (Time from peak tension to 90% relaxation): 99.24 ± 3.23 ms
  Shortening TTP (Time to peak): 69.32 ± 0.79 ms
  Systolic Ca^2+ (Max F340/380): 1.12 ± 0.01
  Tau Ca^2+: 116.52 ± 2.36 ms
[2]; [8]
  Ca^2+ TTP (Time to peak, F340/380): 42.75 ± 1.21 ms
  Diastolic Ca^2+ (MinF340/380): 0.94 ± 0.01
  Peak Shortening: 6.04 ± 0.23 %
  Rmag Ca^2+ (ΔF340/380): 0.11 ± 0.01
  Shortening RT50 (Time from peak tension to 50% relaxation): 41.11 ± 0.96 ms
  Shortening TTP (Time to peak): 71.52 ± 0.90 ms
  Systolic Ca^2+ (Max F340/380): 1.06 ± 0.01
  Tau Ca^2+: 105.85 ± 2.35 ms
